# From ChEMBL document CHEMBL5465560, “Selectivity Literature for EUbOPEN Chemogenomic Library” (2024)
# How the values were obtained:
# [1] = target: Casein kinase I isoform delta (Homo sapiens, UniProt P48730); assay: Selectivity interaction (Ambit KINOMEscan and KiNATiv profiling in Jurkat cells) EUB0000090b CSNK1D; type: cell-based; settings: at 1 µM
# [2] = target: Serine/threonine-protein kinase WNK3 (Homo sapiens) (UniProt Q9BYP7); assay: Selectivity interaction (KinomeScan (DiscoverX)) EUB0001079a WNK3; settings: at 1 µM
# Chain of Serine/threonine-protein kinase WNK3 (Homo sapiens) (Q9BYP7 whole entry, the tested form may be a part): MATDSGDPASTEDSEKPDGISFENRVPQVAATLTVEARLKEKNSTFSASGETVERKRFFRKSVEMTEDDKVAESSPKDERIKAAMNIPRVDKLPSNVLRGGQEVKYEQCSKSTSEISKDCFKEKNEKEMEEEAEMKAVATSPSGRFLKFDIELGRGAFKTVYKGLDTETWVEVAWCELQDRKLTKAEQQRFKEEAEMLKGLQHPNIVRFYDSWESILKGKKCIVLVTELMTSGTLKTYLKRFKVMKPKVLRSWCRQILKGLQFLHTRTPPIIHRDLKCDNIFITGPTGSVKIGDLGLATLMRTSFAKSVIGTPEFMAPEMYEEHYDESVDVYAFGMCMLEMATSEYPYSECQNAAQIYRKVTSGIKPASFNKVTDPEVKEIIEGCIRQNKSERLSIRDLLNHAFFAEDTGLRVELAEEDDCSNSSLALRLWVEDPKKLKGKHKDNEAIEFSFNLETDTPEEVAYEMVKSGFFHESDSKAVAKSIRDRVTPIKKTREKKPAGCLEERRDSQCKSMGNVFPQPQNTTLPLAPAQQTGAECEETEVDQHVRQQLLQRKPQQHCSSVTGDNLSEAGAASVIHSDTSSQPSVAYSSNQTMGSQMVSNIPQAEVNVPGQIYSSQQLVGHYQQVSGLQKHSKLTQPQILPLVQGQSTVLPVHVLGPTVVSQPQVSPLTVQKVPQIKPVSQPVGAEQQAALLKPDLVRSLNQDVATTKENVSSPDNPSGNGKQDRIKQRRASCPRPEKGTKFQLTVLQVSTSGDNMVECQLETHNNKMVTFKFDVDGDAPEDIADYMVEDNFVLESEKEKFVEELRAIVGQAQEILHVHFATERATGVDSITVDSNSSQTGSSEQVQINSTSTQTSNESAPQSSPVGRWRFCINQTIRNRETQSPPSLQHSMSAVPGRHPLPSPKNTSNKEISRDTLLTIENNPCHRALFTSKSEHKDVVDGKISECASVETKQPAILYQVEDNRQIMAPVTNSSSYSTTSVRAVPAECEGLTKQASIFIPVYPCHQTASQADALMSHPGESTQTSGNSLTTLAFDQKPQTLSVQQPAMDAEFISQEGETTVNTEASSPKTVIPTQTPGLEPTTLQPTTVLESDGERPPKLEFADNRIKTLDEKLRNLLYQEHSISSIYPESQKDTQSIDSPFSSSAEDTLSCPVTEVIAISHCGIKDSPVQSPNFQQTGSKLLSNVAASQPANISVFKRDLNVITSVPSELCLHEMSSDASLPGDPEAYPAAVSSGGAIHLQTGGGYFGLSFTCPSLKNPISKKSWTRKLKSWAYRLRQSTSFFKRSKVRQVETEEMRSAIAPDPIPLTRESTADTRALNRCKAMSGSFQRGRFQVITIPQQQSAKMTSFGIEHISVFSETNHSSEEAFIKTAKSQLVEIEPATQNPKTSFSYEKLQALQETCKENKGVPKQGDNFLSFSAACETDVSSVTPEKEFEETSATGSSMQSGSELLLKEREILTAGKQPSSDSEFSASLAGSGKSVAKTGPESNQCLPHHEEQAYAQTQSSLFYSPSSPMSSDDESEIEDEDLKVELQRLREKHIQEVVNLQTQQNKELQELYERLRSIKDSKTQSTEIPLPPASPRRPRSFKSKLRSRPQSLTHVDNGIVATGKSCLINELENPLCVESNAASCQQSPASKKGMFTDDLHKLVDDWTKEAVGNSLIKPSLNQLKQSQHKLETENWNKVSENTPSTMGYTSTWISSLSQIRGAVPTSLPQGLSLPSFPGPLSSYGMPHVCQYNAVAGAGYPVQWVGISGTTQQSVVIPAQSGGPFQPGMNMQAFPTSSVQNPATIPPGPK
# [3] = target: T1, Phosphatidylinositol 3-kinase C2 domain-containing subunit gamma (Homo sapiens) (UniProt O75747); assay: Selectivity interaction (KinomeScan (DiscoverX)) EUB0000607a PIK3C2G; settings: at 10 µM
# T1 sequence (whole entry): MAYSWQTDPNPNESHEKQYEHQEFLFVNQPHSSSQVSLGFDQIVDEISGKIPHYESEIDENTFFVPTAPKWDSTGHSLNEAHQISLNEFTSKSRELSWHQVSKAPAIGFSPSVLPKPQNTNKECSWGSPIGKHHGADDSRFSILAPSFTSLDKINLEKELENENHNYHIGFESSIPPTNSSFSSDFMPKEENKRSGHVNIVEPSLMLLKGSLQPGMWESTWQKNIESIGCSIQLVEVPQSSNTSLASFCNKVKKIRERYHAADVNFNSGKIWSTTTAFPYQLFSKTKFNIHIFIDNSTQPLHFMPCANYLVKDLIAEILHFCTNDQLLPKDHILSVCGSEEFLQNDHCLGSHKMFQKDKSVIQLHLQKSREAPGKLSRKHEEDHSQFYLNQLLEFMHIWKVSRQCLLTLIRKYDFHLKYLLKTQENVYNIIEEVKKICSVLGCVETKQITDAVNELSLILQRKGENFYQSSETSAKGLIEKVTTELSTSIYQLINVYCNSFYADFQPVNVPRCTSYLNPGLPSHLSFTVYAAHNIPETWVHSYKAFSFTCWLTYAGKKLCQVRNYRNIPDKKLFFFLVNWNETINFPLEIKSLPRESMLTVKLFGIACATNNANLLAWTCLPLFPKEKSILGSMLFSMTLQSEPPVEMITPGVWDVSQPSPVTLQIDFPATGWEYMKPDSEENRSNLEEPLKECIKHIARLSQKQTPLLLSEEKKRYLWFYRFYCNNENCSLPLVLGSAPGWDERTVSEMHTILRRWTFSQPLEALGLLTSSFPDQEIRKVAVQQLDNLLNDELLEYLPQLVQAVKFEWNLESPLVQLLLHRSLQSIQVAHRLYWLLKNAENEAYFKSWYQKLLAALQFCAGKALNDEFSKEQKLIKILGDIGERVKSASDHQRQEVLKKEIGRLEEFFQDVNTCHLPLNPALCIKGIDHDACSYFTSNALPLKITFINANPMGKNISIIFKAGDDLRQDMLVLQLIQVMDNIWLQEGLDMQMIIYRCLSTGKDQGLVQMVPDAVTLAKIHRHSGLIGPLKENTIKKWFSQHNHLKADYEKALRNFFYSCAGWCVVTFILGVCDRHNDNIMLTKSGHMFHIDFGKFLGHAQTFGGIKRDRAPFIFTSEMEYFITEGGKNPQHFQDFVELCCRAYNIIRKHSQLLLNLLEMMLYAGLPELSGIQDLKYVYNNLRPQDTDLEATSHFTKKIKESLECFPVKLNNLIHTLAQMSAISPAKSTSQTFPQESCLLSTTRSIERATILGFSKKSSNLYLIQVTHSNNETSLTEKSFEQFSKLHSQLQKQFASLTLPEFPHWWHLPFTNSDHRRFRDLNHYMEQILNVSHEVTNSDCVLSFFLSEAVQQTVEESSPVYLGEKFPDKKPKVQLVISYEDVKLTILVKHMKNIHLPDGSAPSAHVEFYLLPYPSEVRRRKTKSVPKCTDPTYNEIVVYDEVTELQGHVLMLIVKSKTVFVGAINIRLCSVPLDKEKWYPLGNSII
# [4] = target: Protein kinase C beta type (Homo sapiens, UniProt P05771); assay: Selectivity interaction (SelectScreen profiling (Invitrogen)) EUB0000607a PRKCB; settings: at 2 µM
# Chain of Protein kinase C beta type (P05771 2-671 limits assumed): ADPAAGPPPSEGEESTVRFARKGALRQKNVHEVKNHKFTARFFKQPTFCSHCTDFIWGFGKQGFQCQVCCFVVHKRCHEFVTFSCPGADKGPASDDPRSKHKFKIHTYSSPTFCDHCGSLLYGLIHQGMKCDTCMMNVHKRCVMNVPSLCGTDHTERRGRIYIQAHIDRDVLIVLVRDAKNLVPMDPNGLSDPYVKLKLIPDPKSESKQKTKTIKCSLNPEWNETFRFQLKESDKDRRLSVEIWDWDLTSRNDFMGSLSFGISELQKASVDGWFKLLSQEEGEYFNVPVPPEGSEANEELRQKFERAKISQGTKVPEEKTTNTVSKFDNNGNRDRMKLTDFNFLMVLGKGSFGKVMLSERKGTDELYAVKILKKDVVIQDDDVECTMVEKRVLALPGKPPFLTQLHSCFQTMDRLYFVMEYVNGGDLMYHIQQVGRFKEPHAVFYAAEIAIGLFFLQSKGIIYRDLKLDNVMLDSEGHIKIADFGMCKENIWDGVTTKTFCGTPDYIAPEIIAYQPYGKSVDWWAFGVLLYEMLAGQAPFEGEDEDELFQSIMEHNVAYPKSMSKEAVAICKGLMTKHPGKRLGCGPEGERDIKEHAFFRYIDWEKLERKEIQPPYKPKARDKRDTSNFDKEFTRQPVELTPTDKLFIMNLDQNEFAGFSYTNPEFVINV
# [5] = target: 5'-AMP-activated protein kinase catalytic subunit alpha-1 (Homo sapiens, UniProt Q13131); assay: Selectivity interaction (Kinase panel (Invitrogen)) EUB0000639a PRKAA1; settings: at 200 nM
# Chain of 5'-AMP-activated protein kinase catalytic subunit alpha-1 (Q13131 whole entry, looked up): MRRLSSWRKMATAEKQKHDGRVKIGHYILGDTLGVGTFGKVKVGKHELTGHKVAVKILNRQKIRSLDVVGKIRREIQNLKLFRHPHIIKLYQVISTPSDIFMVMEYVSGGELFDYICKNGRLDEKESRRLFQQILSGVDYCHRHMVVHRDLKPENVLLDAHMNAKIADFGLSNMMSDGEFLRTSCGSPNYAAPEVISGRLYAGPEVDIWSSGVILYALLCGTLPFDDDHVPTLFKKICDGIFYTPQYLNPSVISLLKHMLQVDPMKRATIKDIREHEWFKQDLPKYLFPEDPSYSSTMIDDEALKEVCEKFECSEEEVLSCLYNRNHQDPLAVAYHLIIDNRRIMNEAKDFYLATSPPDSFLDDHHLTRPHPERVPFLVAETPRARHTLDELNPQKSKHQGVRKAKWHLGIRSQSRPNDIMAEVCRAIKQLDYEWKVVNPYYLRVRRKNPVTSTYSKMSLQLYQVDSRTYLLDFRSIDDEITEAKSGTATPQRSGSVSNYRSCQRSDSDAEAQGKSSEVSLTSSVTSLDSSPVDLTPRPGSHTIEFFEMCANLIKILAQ
# [6] = target: Tyrosine-protein kinase CSK (Homo sapiens) (UniProt P41240); assay: Selectivity interaction (ActivX KiNativ screen (kinase selectivity in THP-1 cell lysates)) EUB0000639a CSK; type: subcellular; settings: lysate, at 0.01 µM
# [7] = target: Mitogen-activated protein kinase kinase kinase kinase 5 (Homo sapiens) (UniProt Q9Y4K4); assay: Selectivity interaction (KinomeScan (DiscoverX)) EUB0000229b MAP4K5; settings: at 10 µM
# Chain of Mitogen-activated protein kinase kinase kinase kinase 5 (Homo sapiens) (Q9Y4K4 whole entry, looked up): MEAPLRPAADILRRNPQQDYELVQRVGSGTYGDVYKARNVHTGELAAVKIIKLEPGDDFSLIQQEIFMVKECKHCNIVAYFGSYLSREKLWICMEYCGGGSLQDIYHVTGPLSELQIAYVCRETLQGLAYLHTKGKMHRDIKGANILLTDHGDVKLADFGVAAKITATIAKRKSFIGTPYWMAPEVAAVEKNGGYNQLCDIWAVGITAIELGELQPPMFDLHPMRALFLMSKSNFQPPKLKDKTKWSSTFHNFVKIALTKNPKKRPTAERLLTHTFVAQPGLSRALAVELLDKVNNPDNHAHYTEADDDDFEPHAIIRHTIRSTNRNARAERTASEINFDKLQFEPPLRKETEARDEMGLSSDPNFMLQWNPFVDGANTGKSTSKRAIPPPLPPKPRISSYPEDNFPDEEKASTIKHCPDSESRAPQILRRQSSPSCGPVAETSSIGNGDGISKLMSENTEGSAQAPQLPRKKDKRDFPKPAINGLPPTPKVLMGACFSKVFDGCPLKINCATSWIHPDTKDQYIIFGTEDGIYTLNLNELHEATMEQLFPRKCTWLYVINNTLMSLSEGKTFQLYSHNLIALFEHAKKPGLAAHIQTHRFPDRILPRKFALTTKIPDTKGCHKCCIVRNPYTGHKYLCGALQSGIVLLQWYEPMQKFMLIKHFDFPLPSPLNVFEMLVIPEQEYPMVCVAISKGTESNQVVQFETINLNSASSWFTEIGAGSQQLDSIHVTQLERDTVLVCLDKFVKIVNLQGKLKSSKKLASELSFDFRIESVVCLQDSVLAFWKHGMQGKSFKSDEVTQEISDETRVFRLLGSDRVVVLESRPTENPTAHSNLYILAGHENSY
# [8] = system: Tyrosine-protein kinase ABL1 (Homo sapiens), P00519 [H396P]; assay: (§1) Selectivity interaction (LanthaScreen Eu Kinase Binding Assay) EUB0001632a ABL1; settings: at 10 µM
# [9] = system: Tyrosine-protein kinase ABL1 (Homo sapiens), P00519 [M351T]; assay: as §1; settings: at 10 µM
# [10] = system: Tyrosine-protein kinase ABL1 (Homo sapiens), P00519 [Q252H]; assay: as §1; settings: at 10 µM
# [11] = target: Protein-tyrosine kinase 6 (Homo sapiens, UniProt Q13882); assay: Selectivity interaction (Kinase panel (Z-LYTE Assay)) EUB0001632a PTK6; settings: at 10 µM
# Chain of Protein-tyrosine kinase 6 (Q13882 whole entry, looked up): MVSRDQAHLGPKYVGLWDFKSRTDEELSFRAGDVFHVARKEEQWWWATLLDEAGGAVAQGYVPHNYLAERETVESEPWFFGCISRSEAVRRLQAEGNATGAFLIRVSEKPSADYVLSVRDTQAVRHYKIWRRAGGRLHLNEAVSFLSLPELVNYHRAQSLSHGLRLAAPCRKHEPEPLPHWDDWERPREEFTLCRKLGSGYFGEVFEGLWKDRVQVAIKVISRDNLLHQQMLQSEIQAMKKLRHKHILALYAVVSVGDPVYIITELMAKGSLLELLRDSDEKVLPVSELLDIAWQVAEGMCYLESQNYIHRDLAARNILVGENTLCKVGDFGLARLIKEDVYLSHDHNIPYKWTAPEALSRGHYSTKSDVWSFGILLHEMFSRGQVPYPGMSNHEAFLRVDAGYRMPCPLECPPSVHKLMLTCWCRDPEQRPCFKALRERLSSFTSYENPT
# [12] = target: T2, Serine/threonine-protein kinase 4 (Homo sapiens) (UniProt Q13043); assay: Selectivity interaction (KinomeScan (DiscoverX)) EUB0000695a STK4; settings: at 100 nM
# T2 sequence (whole entry): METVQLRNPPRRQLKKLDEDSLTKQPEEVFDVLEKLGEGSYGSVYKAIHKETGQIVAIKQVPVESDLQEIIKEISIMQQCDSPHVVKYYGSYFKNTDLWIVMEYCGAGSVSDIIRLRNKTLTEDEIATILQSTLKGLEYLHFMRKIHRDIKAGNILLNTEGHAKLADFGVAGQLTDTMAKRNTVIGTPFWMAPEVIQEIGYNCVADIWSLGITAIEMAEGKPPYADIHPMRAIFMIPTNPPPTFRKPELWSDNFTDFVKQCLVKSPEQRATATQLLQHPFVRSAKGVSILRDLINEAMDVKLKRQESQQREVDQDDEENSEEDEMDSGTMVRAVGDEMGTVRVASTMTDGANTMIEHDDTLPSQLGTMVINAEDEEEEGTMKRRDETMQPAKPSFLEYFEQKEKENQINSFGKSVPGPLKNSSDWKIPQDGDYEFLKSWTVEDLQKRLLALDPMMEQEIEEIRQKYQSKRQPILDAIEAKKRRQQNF
# Chain of Casein kinase I isoform delta (P48730 whole entry, looked up, canonical isoform): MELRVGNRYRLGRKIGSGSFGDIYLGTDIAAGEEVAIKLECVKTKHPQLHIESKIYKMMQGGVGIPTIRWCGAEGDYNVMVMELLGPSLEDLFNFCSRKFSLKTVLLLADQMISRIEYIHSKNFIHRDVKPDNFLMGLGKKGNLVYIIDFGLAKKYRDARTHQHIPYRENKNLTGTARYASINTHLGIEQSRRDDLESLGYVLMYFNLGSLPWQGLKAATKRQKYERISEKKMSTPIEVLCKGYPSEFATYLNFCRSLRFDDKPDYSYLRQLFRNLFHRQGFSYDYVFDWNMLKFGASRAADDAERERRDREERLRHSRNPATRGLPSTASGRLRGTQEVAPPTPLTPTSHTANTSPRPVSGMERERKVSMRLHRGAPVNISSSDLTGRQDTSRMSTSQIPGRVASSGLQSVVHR
structure (smiles),measurement,setting,value
CN(C)C/C=C/C(=O)Nc1ccc(C(=O)N2CCCC(Nc3ncc(Cl)c(-c4c[nH]c5ccccc45)n3)C2)cc1 (configuration not stated),% of control,[1],80%
Nc1cnc(N2CCc3cc(S(=O)(=O)Nc4c(F)cc(Cl)cc4F)cc(N4CCCC4=O)c32)nc1 [TP-020n],% of control,[2],100%
CNC(=O)Nc1ccc(-c2nc(N3CC4CCC(C3)O4)c3cnn(C4CCC5(CC4)OCCO5)c3n2)cc1,% of control,[3],22%
same,% of inhibition,[4],11%
CC[C@@H]1[C@H](F)C(=O)N[C@@H]1COc1nccc2cc(C(N)=O)c(OC)cc12 [ZIMLOVISERTIB],% of inhibition,[5],13.1%
same,% of inhibition,[6],2.3%
COc1cc(N(C)c2ccnc3ccc(C(F)(F)F)cc23)cc(OC)c1OC,% binding,[7],97%
Cn1cc(-n2cnc3c(NCc4nc5cc(Cl)c(Cl)cc5[nH]4)nc(N4CCOCC4)nc32)cn1,% of inhibition,[8],-3.27%
same,% of inhibition,[9],-10.1%
same,% of inhibition,[10],-18.3%
same,% of control,[11],9.47%
Cc1cc(F)c(C(=O)Nc2cccc(-c3nncn3C(C)C)n2)cc1-n1cnc(C2CC2)c1,% of control,[12],100%
